{"source": "paper PMC7594851", "about": "“Enhanced oral bioavailability of an etoposide multiple nanoemulsion incorporating a deoxycholic acid derivative–lipid complex” (Drug Delivery, 2020)", "key": {"[1]": {"assay": "Droplet size, polydispersity index and zeta potential by dynamic laser light scattering", "format": "physicochemical", "details": "mean ± SD, n=6", "method": "The average droplet size, polydispersity index (PDI), and zeta potential of ELNE were determined using a dynamic laser light scattering analyzer (Malvern Zetasizer Nano ZS90; Malvern Instruments, Malvern, UK). Morphological evaluation of the selected ELNE was performed by transmission electron microscopy (JEM-200; JEOL, Tokyo, Japan)."}, "[2]": {"assay": "Aqueous solubility of ETP and ETP/LMC complexes", "format": "physicochemical", "details": "water; mean ± SD, n=6", "text": "Supplement IDRD_A_1837293_SM2931.docx, table 3: Table S3. Aqueous solubilities of a physical complex of ETP and LMC and effective permeabilities of ETP and ETP/LMC or ETP and ETP/LMC-loaded nanoemulsion. | column: Aqueous solubility (μg/mL)"}, "[3]": {"assay": "Parallel artificial membrane permeability assay (effective permeability, Pe)", "format": "in vitro ADME", "details": "PAMPA; Table S3: after dissolution of ETP or ETP/LMCs in water, or incorporation into the nanoemulsion; mean ± SD, n=6", "method": "A parallel artificial membrane permeability assay was performed using pre-coated 96-well plates designed for this assay (Corning, Corning, NY) according to the manufacturer’s instructions. Briefly, 300 µL PBS (pH 6.8) was added to the receiver plate, and 200 µL of each formulation diluted in PBS (pH 6.8) containing 100 µg/mL ETP was added to each well of the filter plate. The plates were then assembled, and the system was incubated at room temperature for five hours without shaking. After five hours, the plates were disassembled, and samples were withdrawn from both the donor and acceptor plates. The concentration of ETP that permeated through the artificial membrane was measured by HPLC at 254 nm. […] The effective permeability (Pe) of each sample was calculated according to the formula: (1) Pe=−ln[1−CA(t)/Cequilibrium]/[A ×(1/VD+1/VA)×t] where Pe is the permeability (cm/s), A is the effective permeation area (0.288 cm^2), VD is the volume of the donor well (0.2 mL), VA is the volume of the acceptor well (0.3 mL), t is the total incubation time in s, CA(t) is the concentration of the drug in the acceptor well at time t, and Cequilibrium represents [CD(t) × VD + CA(t) × VA]/(VD + VA), where CD(t) denotes the concentration of the drug in the donor well at time t."}}, "note": "Where “and” joins values, the source holds several entries; their conditions need not be identical. Equal values may be shown once. Where a name gives a salt, the structure may show the parent alone."}
{"molecule": "CCCCCCCCCC(=O)OC[C@H](COP(=O)(O)O)OC(=O)CCCCCCCCC", "note": "[PA, 1,2-didecanoyl-sn-glycero-3-phosphate (sodium salt)]", "values": [{"measurement": "Particle size", "setting": "[1]", "value": "276 ± 3.67", "unit": "nm"}, {"measurement": "Polydispersity index", "setting": "[1]", "value": "0.330 ± 0.008"}]}
{"molecule": "COc1cc([C@@H]2c3cc4c(cc3[C@@H](O[C@@H]3O[C@@H]5CO[C@@H](C)O[C@H]5[C@H](O)[C@H]3O)[C@H]3COC(=O)[C@H]23)OCO4)cc(OC)c1O", "note": "[ETP, etoposide]", "values": [{"measurement": "solubility", "setting": "[2]", "value": "230 ± 29.4", "unit": "µg/mL"}, {"measurement": "Papp at 5 h, 100 µg/mL", "setting": "[3]", "value": "0.251 ± 0.063", "unit": "×10⁻⁶ cm/s"}]}
{"molecule": "COC(=O)C(CCCCN)NC(=O)CCC(C)C1CCC2C3CCC4CC(O)CCC4(C)C3CC(O)C12C", "note": "(stereo not drawn) [DCK, N^α-deoxycholyl-l-lysyl-methylester]", "values": [{"measurement": "Particle size", "setting": "[1]", "value": "263 ± 42.4", "unit": "nm"}, {"measurement": "Polydispersity index", "setting": "[1]", "value": "0.717 ± 0.107"}, {"measurement": "Zeta potential", "setting": "[1]", "value": "29.4 ± 0.57 mV and 29.4 ± 0.576 mV"}]}
